# Experiments:
# [1] = tested on: CYP3A; assay: CYP3A catalytic activity (erythromycin-N-demethylation), mouse hepatic microsomes; format: in vitro ADME; conditions: for activity at 30 min, 12.5 µM / activity at 30 min, 25 µM: liver microsomes, pH 7.4, probe erythromycin, read-out: CYP3A catalytic activity, % of Control
# Experimental: (§1) Microsomal preparation was as previously outlined. Individual livers were placed in beakers containing 1.15% KCl. All the procedures were carried out at 0–4 °C. The liver samples were minced and homogenised in buffer A (0.1 M Tris, 0.1 M potassium chloride, 1 mM EDTA, and 20 μM butylated hydroxytoluene, at pH = 7.4) using the Teflon-glass homogeniser (5–6 vertical passes). The samples were centrifuged for 20 min at 10,000× g. The supernatant was then transferred into another set of centrifuge tubes and spun for 60 min at 100,000× g. The pellet was resuspended in Buffer B (0.1 M potassium pyrophosphate, 1 mM EDTA, and 20 μM butylated hydroxytoluene, at pH = 7.4), homogenised and recentrifuged for 60 min at 100,000× g. Finally, the pellet was homogenised in 1–2 mL of Buffer C (10 mM Tris-HCl, 1 mM EDTA, and 4% glycerol (v/v)) and stored at […] until used. The protein concentration of the microsomes was determined using the Bicinchoninic acid (BCA) method.
# (§2) CYP3A catalytic activity was determined using the erythromycin-N-demethylation activity assay as described previously. The reaction mixture (final volume of 1 mL and final protein concentration of 1 mg) contained 500 µL of microsomes in 0.1 M phosphate buffer (pH = 7.4), 400 µL of erythromycin buffer (0.45 mM), and 50 µL of the test compound was pre-warmed at 37 °C for 2 min. The reaction was initiated with 50 µL of 2.5 mM […] and incubated at 37 °C for 30 min (optimised incubation time). The reaction was stopped with the addition of 330 µL of 15% zinc sulphate. Tubes were vortexed and left for 5 min (at room temperature) and then 330 µL of saturated barium hydroxide was added. Tubes were further vortexed and left for 5 min (at room temperature). Tubes were then centrifuged at 1800 g for 10 min. To 830 µL of the supernatant, 330 µL of Nash reagent (30% (w/v) ammonium acetate, 0.4% (v/v) acetyl acetone) was added and further incubated at 60 °C for 30 min. The blank tube contained 330 µL of Nash reagent and 830 µL of Milli-Q-water. The tubes were centrifuged again at 1800× g for 10 min and the absorbance was read at 415 nm. Results presented are the mean ± SEM of 3 independent experiments conducted in duplicate.
# [2] = tested on: CYP3A; assay: CYP3A catalytic activity (erythromycin-N-demethylation), rat hepatic microsomes; format: in vitro ADME; conditions: for activity at 30 min, 12.5 µM / activity at 30 min, 25 µM: liver microsomes, pH 7.4, probe erythromycin, read-out: CYP3A catalytic activity, % of Control
# Experimental: as §1, §2
# [3] = tested on: CYP3A; assay: CYP3A catalytic activity (erythromycin-N-demethylation), possum hepatic microsomes; format: in vitro ADME, possum (Trichosurus vulpecula); conditions: for activity at 30 min, 12.5 µM / activity at 30 min, 25 µM: possum (Trichosurus vulpecula), liver microsomes, pH 7.4, probe erythromycin, read-out: CYP3A catalytic activity, % of Control
# Experimental: as §1, §2
# [4] = tested on: UGT; assay: p-nitrophenol glucuronidation, mouse hepatic microsomes; format: in vitro ADME
# Experimental: as §1
# (§3) The rate of p-nitrophenol glucuronidation was determined as previously reported. In short, the incubation mixture (500 µL in total) contained; 100 µL of 1 mg/mL microsomes, 50 µL of 1 M Tris-HCl (pH = 7.4), 20 µL of 0.25% (v/v) Triton-X 100, 50 µL of 50 mM MgCl2, 130 µL of double distilled water, 50 µL of 5 mM p-nitrophenol, 50 µL of the test compound, and 50 µL of uridine 5′-diphosphoglucuronic acid trisodium salt (UDPGA). The blank tubes had all components except UDPGA and microsomes; instead, 150 µL of 0.1 M phosphate buffer was added to equal the volume as the reaction mixture. The reaction mixture and the blank were incubated at 37 °C for 2 min. Then, 50 µL of 30 mM UDPGA was added to initiate the reaction which proceeded at 37 °C for 30 min (optimised incubation time). The reaction was stopped using 1 mL of 5% trichloroacetic acid (TCA). The tubes were centrifuged at 1800 g for 10 min and then 1 mL of supernatant was added to 250 µL of 2 M sodium hydroxide (NaOH). The absorbance was read at 405 nm. The sample reading was subtracted from the blank absorbance and divided by the extinction coefficient of p-nitrophenol ([…]) and the light path of the spectrophotometer (1 cm). The glucuronidation activities are expressed in µmol/mg/min and are the mean ± SEM of 3 independent experiments conducted in duplicate.
# [5] = tested on: UGT; assay: p-nitrophenol glucuronidation, rat hepatic microsomes; format: in vitro ADME
# Experimental: as §1, §3
# [6] = tested on: UGT; assay: p-nitrophenol glucuronidation, possum hepatic microsomes; format: in vitro ADME, possum (Trichosurus vulpecula)
# Experimental: as §1, §3
SMILES,CYP3A catalytic activity ([1]; 12.5 µM) [nmol/mg/min],CYP3A catalytic activity ([1]; 25 µM) [nmol/mg/min],"activity at 30 min, 12.5 µM ([1]; 12.5 µM) [%]","activity at 30 min, 25 µM ([1]; 25 µM) [%]",CYP3A catalytic activity ([2]; 12.5 µM) [nmol/mg/min],CYP3A catalytic activity ([2]; 25 µM) [nmol/mg/min],CYP3A catalytic activity ([3]; 12.5 µM) [nmol/mg/min],CYP3A catalytic activity ([3]; 25 µM) [nmol/mg/min],p-nitrophenol glucuronidation activity ([4]; 12.5 µM) [µmol/mg/min],"p-nitrophenol glucuronidation, % of Control ([4]; 12.5 µM) [%]",p-nitrophenol glucuronidation activity ([4]; 25 µM) [µmol/mg/min],"p-nitrophenol glucuronidation, % of Control ([4]; 25 µM) [%]",p-nitrophenol glucuronidation activity ([5]; 12.5 µM) [µmol/mg/min],"p-nitrophenol glucuronidation, % of Control ([5]; 12.5 µM) [%]",p-nitrophenol glucuronidation activity ([5]; 25 µM) [µmol/mg/min],"p-nitrophenol glucuronidation, % of Control ([5]; 25 µM) [%]",p-nitrophenol glucuronidation activity ([6]; 12.5 µM) [µmol/mg/min],"p-nitrophenol glucuronidation, % of Control ([6]; 12.5 µM) [%]",p-nitrophenol glucuronidation activity ([6]; 25 µM) [µmol/mg/min],"p-nitrophenol glucuronidation, % of Control ([6]; 25 µM) [%]",other results
"CC1(O)CCC(C(C)(C)O)CC1 (stereo in doubt) [Trans-terpin, trans-terpin]",0.71 ± 0.03,0.70 ± 0.03,101 ± 2.7,99.64 ± 0.93,0.59 ± 0.04,0.60 ± 0.06,0.41 ± 0.02,0.40 ± 0.03,2.44 ± 0.06,101.67 ± 0.74,2.33 ± 0.07,97.15 ± 1.80,2.87 ± 0.22,104.14 ± 9.44,2.50 ± 0.10,90.51 ± 3.63,3.90 ± 0.34,99.53 ± 0.84,3.91 ± 0.34,99.77 ± 0.60,"activity at 30 min, 12.5 µM ([2]; 12.5 µM): 98.3 ± 3.1%; activity at 30 min, 25 µM ([2]; 25 µM): 99.3 ± 1%; activity at 30 min, 12.5 µM ([3]; 12.5 µM): 106 ± 1.42%; activity at 30 min, 25 µM ([3]; 25 µM): 103 ± 6.11%"
"CC1(C)CCCCC1 [1,1-dimethylcyclohexane]",0.73 ± 0.03,0.79 ± 0.04,98.93 ± 0.94,107 ± 1.13,0.61 ± 0.07,0.61 ± 0.10,0.38 ± 0.01,0.40 ± 0.02,2.48 ± 0.13,105.97 ± 2.23,2.19 ± 0.09,93.67 ± 1.67,2.59 ± 0.08,100.53 ± 2.39,2.58 ± 0.05,100.29 ± 3.55,4.08 ± 0.18,100.68 ± 0.60,4.03 ± 0.23,99.32 ± 0.90,"activity at 30 min, 12.5 µM ([2]; 12.5 µM): 103 ± 7.68%; activity at 30 min, 25 µM ([2]; 25 µM): 100 ± 1.66%; activity at 30 min, 12.5 µM ([3]; 12.5 µM): 98 ± 1.28%; activity at 30 min, 25 µM ([3]; 25 µM): 101.8 ± 0.61%"
CCCCCC12CCC(C(=O)O)(CC1)CC2 [4-pentylbicyclo[2.2.2]octane-1-carboxylic acid],0.61 ± 0.04,0.67 ± 0.01,96.3 ± 1.91,106 ± 2.97,0.56 ± 0.05,0.55 ± 0.06,0.40 ± 0.05,0.40 ± 0.02,2.41 ± 0.06,98.73 ± 3.51,2.21 ± 0.14,90.15 ± 2.18,2.88 ± 0.13,103.95 ± 3.65,2.82 ± 0.07,101.89 ± 3.31,3.80 ± 0.27,98.44 ± 1.05,3.96 ± 0.17,102.71 ± 1.91,"activity at 30 min, 12.5 µM ([2]; 12.5 µM): 105 ± 3.3%; activity at 30 min, 25 µM ([2]; 25 µM): 102 ± 2.42%; activity at 30 min, 12.5 µM ([3]; 12.5 µM): 109 ± 3.58%; activity at 30 min, 25 µM ([3]; 25 µM): 111 ± 7.26%"
O=C(O)C1C2C=CC(C2)C1C(=O)O (stereo not drawn) [5-norbornen-2-endo-3-exo-dicarboxylic acid],0.73 ± 0.04,0.77 ± 0.03,,,0.65 ± 0.10,0.64 ± 0.09,0.39 ± 0.03,0.38 ± 0.02,2.23 ± 0.09,107.16 ± 4.97,2.23 ± 0.10,107.42 ± 3.63,2.85 ± 0.16,96.42 ± 1.23,2.92 ± 0.19,98.52 ± 2.14,3.90 ± 0.23,100.53 ± 2.09,3.91 ± 0.20,100.86 ± 1.90,"CYP3A catalytic activity, % of Control ([1]; 12.5 µM): 96.48 ± 0.72%; CYP3A catalytic activity, % of Control ([1]; 25 µM): 101.88 ± 0.75%; CYP3A catalytic activity, % of Control ([2]; 12.5 µM): 107.52 ± 3.84%; CYP3A catalytic activity, % of Control ([2]; 25 µM): 105.30 ± 2.08%; CYP3A catalytic activity, % of Control ([3]; 12.5 µM): 98.90 ± 0.73%; CYP3A catalytic activity, % of Control ([3]; 25 µM): 95.23 ± 3.85%"
O=C(O)C1CC2C=CC1O2 (stereo not shown) [7-oxabicyclo[2.2.1]-hept-5-ene-2-carboxylic acid],0.67 ± 0.01,0.66 ± 0.03,103 ± 2.77,103 ± 3.52,0.48 ± 0.06,0.51 ± 0.04,0.41 ± 0.02,0.40 ± 0.02,3.46 ± 0.04,101.00 ± 0.64,3.26 ± 0.09,95.53 ± 4.50,2.87 ± 0.07,102.50 ± 2.98,2.75 ± 0.06,98.20 ± 1.42,4.02 ± 0.09,99.13 ± 1.29,3.99 ± 0.09,98.49 ± 0.83,"activity at 30 min, 12.5 µM ([2]; 12.5 µM): 107 ± 5.87%; activity at 30 min, 25 µM ([2]; 25 µM): 114 ± 3.17%; activity at 30 min, 12.5 µM ([3]; 12.5 µM): 106 ± 7.47%; activity at 30 min, 25 µM ([3]; 25 µM): 103 ± 1.09%"
"OC(Cn1cncn1)(Cn1cncn1)c1ccc(F)cc1F [fluconazole, reference compound]",,,,,,,,,,,,,,,,,,,,,"decrease of hepatic p-nitrophenol glucuronidation ([4]; 2.5 mM, positive control): 20 percent control"

# — paper PMC8698377, “In Vitro Hepatic Assessment of Cineole and Its Derivatives in Common Brushtail Possums (Trichosurus vulpecula) and Rodents” (Biology, 2021)
